Experimental data from patent publication US20260297542A1, “HERBICIDE RESISTANT PLANTS” (SYNGENTA CROP PROTECTION AG, priority 2023, published 2026).
“And” between values parts separate entries of the source, which are not always exact repeats. Equal entries are not always repeated.

Experiments:
AtPPO1 Y219S = molecular target: T1, AtPPO1 Y219S (Arabidopsis thaliana, UniProt P55826, Y219S); assay: E. coli hemG growth inhibition by herbicide, AtPPO1 variant; format: cell-based; settings: read-out: percentage growth inhibition
T1 construct: expressed in transfected cells; host or cells: E. coli BL21(DE3) hemG (hemG replaced by CmR), pET24a plasmid
T1 sequence (P55826 35-537 Y219S): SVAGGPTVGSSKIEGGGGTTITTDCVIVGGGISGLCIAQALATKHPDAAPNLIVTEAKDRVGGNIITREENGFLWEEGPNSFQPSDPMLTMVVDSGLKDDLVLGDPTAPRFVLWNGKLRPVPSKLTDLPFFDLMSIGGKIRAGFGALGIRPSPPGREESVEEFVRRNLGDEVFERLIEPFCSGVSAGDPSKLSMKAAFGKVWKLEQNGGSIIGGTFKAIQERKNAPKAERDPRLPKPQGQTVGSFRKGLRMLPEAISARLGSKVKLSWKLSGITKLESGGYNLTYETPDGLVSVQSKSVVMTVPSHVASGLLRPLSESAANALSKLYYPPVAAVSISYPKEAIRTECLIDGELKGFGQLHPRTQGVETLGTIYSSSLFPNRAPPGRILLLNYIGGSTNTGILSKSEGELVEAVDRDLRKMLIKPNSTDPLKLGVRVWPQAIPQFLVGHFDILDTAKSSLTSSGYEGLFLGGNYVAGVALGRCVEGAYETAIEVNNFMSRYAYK
Outline: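 AtPPO1 variants from a site-saturation library, codon-optimised and T7-driven in pET24a, were expressed in E. coli BL21(DE3) lacking hemG (hemG replaced by CmR). Growth in Terrific broth with 0.1 mM IPTG plus 6.25 ppm herbicide 0 or E, 0.78 ppm herbicide B, or DMSO was read as OD600 after 24 h at 37° C; inhibition was calculated against the DMSO culture.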

Wildtype Samsun tobacco = assay: herbicide damage to wild-type tobacco; format: in vivo; settings: 120 g ai/ha, 0 no visible damage, 100 complete death
Excerpt: (§1) Herbicidal damage is visually assessed across the population and a herbicide damage score given at 7 and 14 days. A score of 0 indicates no visible damage or stunting whereas a score of 100 indicates a complete death of the plant. 20 transgenic events (i.e. individual transgenic plants) from each GM tobacco line are transplanted to soil 1 week prior to spraying with PPO inhibiting compounds. WT tobacco is included as a control.
as §1, with “damage was” for “damage is”, “line were” for “line are”
The wild-type Samsun plants show significant damage at the day 7 and 14 assessment time.

[1] = system: tobacco plants containing pBin TMV AtPPO1; assay: herbicide damage to transgenic tobacco; format: in vivo; settings: 120 g ai/ha, per transgenic event, 0 no visible damage, 100 complete death
Excerpt: Populations of transgenic tobacco comprising 20-30 transgenic events per plant transformation constructs are generated as described in Example 4. These lines were clonally propagated and 1 clone per event was sprayed with PPO herbicides to confirm the herbicide resistance.
as §1
as §1, with “damage was” for “damage is”, “line were” for “line are”

Structure (SMILES)	inhibition at 6.25 ppm (AtPPO1 Y219S)	inhibition at 0.78 ppm (AtPPO1 Y219S)	percentage of damage (Wildtype Samsun tobacco; 7 DAT)	percentage of damage (Wildtype Samsun tobacco; 14 DAT)	percentage of damage ([1]; 7 DAT)	percentage of damage ([1]; 14 DAT)
CC(C)N(C)S(=O)(=O)NC(=O)c1cc(-n2c(=O)cc(C(F)(F)F)n(C)c2=O)c(F)cc1Cl [Herbicide E, saflufenacil]	49%					
C#CCN1C(=O)C(F)(F)Oc2cc(F)c(-n3c(=O)n(C)c(=S)n(C)c3=O)cc21 [Herbicide B, trifludimoxazin]		28%	100%	100%	100% and 99% and 87% and 97%	100% and 80% and 98% and 99%
CCOC(=O)[C@]1(C)CC(c2cc(-n3c(=O)n(C)c(=S)n(C)c3=O)c(F)cc2Cl)=NO1 [Herbicide D, ethyl (5S)-3-[2-chloro-5-(3,5-dimethyl-2,6-dioxo-4-thioxo-1,3,5-triazinan-1-yl)-4-fluoro-phenyl]-5-methyl-4H-isoxazole-5-carboxylate]	33%		98% and 100%	100%	100% and 95% and 99% and 97% and 65% and 92% and 98%	100% and 95% and 99% and 75% and 97% and 96%
CCOC(=O)C1(C)CC(c2cc(-n3c(=O)cc(C(F)(F)F)n(C)c3=O)c(F)cc2Cl)=NO1 (stereo not drawn) [Herbicide C, 3-(2-chloro-4-fluoro-5-(3-methyl-2,6-dioxo-4-trifluoromethyl-3,6-dihydropyrimidin-1(2H)-yl)phenyl)-5-methyl-4,5-dihydroisoxazole-5-carboxylic acid ethyl ester]			100%	100%	100% and 95% and 94% and 97%	100% and 90% and 95% and 97% and 99%
